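48-hour exposure; five concentrations; linearly interpolated endpoints. GI50 marks 50% less growth. TGI: concentration producing complete growth inhibition.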
Experiments:
Test in all cases: NCI anticancer screen, dose series, 48 h
[1] = test system: SNB-75 CNS
[2] = test system: TK-10 renal
[3] = test system: SR leukemia
[4] = test system: A549 NSCLC
[5] = test system: U251 CNS
[6] = test system: SW-620 colon
[7] = test system: UACC-257 melanoma
[8] = test system: A498 renal
[9] = test system: T-47D breast
[10] = test system: HCC-2998 colon
[11] = test system: SF-295 CNS
[12] = test system: M14 melanoma
[13] = test system: OVCAR-3 ovarian
[14] = test system: DU-145 prostate
[15] = test system: CAKI-1 renal
[16] = test system: MALME-3M melanoma
[17] = test system: SNB-19 CNS
[18] = test system: HT29 colon
[19] = test system: KM12 colon
[20] = test system: OVCAR-8 ovarian
[21] = test system: SK-MEL-28 melanoma
[22] = test system: LOX IMVI melanoma
[23] = test system: MDA-MB-435
[24] = test system: NCI-H23 lung
[25] = test system: RPMI-8226 leukemia
[26] = test system: UO-31 renal
[27] = test system: NCI-H226 lung
[28] = test system: K-562 leukemia
[29] = test system: MOLT-4 leukemia
[30] = test system: NCI-H522 lung
[31] = test system: HCT-15 colon
[32] = test system: HS 578T breast
[33] = test system: CCRF-CEM leukemia
[34] = test system: HOP-62 NSCLC
[35] = test system: PC-3 prostate
[36] = test system: OVCAR-4 ovarian
[37] = test system: SN12C renal
[38] = test system: SF-539 CNS
[39] = test system: MDA-MB-231 breast
[40] = test system: SK-MEL-5 melanoma
[41] = test system: HL-60(TB) leukemia
[42] = test system: SK-OV-3 ovarian
[43] = test system: RXF 393 renal
[44] = test system: NCI-H460 lung
[45] = test system: COLO 205 colon
[46] = test system: UACC-62 melanoma
[47] = test system: SF-268 CNS
[48] = test system: SK-MEL-2 melanoma
[49] = test system: BT-549 breast
[50] = test system: 786-0 renal
[51] = test system: IGROV1 ovarian
[52] = test system: ACHN renal
[53] = test system: NCI/ADR-RES ovarian
[54] = test system: HCT-116 colon
[55] = test system: OVCAR-5 ovarian
[56] = test system: MCF7 breast
[57] = test system: HOP-92 NSCLC

For `Cn1cc(C2=C(c3cn(C)c4ccc(N)cc34)C(=O)NC2=O)c2ccccc21`, the GI50 [1] was 1.63 µM, the TGI [1] was > 21.2 µM and the GI50 [2] was 23.1 µM. The TGI [2] was > 25 µM, the GI50 [3] was 2.05 µM and the TGI [3] was > 25 µM. The GI50 [4] was 12.5 µM, the TGI [4] was > 25 µM and the GI50 [5] was 8.96 µM. The TGI [5] was > 25 µM, the GI50 [6] was 5 µM and the TGI [6] was > 25 µM. For the same compound, the GI50 [7] was > 25 µM, the TGI [7] was > 25 µM and the GI50 [8] was 9.28 µM. For the same compound, the TGI [8] was > 25 µM, the GI50 [9] was 18.8 µM and the TGI [9] was > 25 µM. The GI50 [10] was > 25 µM, the TGI [10] was > 25 µM and the GI50 [11] was 6.83 µM. The TGI [11] was > 22.2 µM, the GI50 [12] was 13.9 µM and the TGI [12] was > 25 µM. It also gave a GI50 [13] of 4.79 µM, a TGI [13] of 16 µM and a GI50 [14] of 12.3 µM. For the same compound, the TGI [14] was > 25 µM, the GI50 [15] was 4.85 µM and the TGI [15] was > 25 µM. For the same compound, the GI50 [16] was > 25 µM, the TGI [16] was > 25 µM and the GI50 [17] was > 25 µM. The TGI [17] was > 25 µM, the GI50 [18] was 5.82 µM and the TGI [18] was > 25 µM. For the same compound, the GI50 [19] was 6.4 µM, the TGI [19] was > 25 µM and the GI50 [20] was 17 µM. For the same compound, the TGI [20] was > 25 µM, the GI50 [21] was 17.2 µM and the TGI [21] was > 25 µM. For the same compound, the GI50 [22] was 12.2 µM, the TGI [22] was > 25 µM and the GI50 [23] was 0.729 µM. For the same compound, the TGI [23] was > 25 µM, the GI50 [24] was 15.3 µM and the TGI [24] was > 25 µM. For the same compound, the GI50 [25] was > 16.5 µM, the TGI [25] was > 25 µM and the GI50 [26] was 3.6 µM. The TGI [26] was > 25 µM, the GI50 [27] was > 17.6 µM and the TGI [27] was > 25 µM. For the same compound, the GI50 [28] was 1.92 µM, the TGI [28] was > 25 µM and the GI50 [29] was 10.2 µM. For the same compound, the TGI [29] was > 25 µM, the GI50 [30] was 6.78 µM and the TGI [30] was > 25 µM. The GI50 [31] was 4.52 µM, the TGI [31] was > 25 µM and the GI50 [32] was 5.3 µM. The TGI [32] was > 25 µM, the GI50 [33] was 6.95 µM and the TGI [33] was > 25 µM. For the same compound, the GI50 [34] was 9.59 µM, the TGI [34] was > 25 µM and the GI50 [35] was 9 µM. For the same compound, the TGI [35] was > 25 µM, the GI50 [36] was > 20.2 µM and the TGI [36] was > 25 µM. The GI50 [37] was 13.4 µM, the TGI [37] was > 25 µM and the GI50 [38] was 6.14 µM. For the same compound, the TGI [38] was 24.4 µM, the GI50 [39] was > 25 µM and the TGI [39] was > 25 µM. For the same compound, the GI50 [40] was 6.91 µM, the TGI [40] was > 25 µM and the GI50 [41] was 7.41 µM. The TGI [41] was > 25 µM, the GI50 [42] was 8.99 µM and the TGI [42] was > 25 µM. The GI50 [43] was 8.13 µM, the TGI [43] was > 25 µM and the GI50 [44] was 9.53 µM. For the same compound, the TGI [44] was > 25 µM, the GI50 [45] was 6 µM and the TGI [45] was > 20.5 µM. For the same compound, the GI50 [46] was 13.1 µM, the TGI [46] was > 25 µM and the GI50 [47] was 15.6 µM. For the same compound, the TGI [47] was > 25 µM, the GI50 [48] was 8.46 µM and the TGI [48] was > 25 µM. For the same compound, the GI50 [49] was 7.12 µM, the TGI [49] was > 25 µM and the GI50 [50] was 19.7 µM. For the same compound, the TGI [50] was > 25 µM, the GI50 [51] was 23.8 µM and the TGI [51] was > 25 µM. For the same compound, the GI50 [52] was 13.9 µM, the TGI [52] was > 25 µM and the GI50 [53] was 10.3 µM. For the same compound, the TGI [53] was > 25 µM, the GI50 [54] was 6.65 µM and the TGI [54] was > 25 µM. For the same compound, the GI50 [55] was > 25 µM, the TGI [55] was > 25 µM and the GI50 [56] was 4.76 µM. For the same compound, the TGI [56] was > 25 µM.
In the case of `C[C@]12CC[C@@H]3c4ccc(O)c([N+](=O)[O-])c4CC[C@H]3[C@@H]1CC[C@@H]2NS(=O)(=O)c1ccc(C(F)(F)F)cc1`, the GI50 [1] is reported as 1.43 µM, the TGI [1] is reported as 5.73 µM and the GI50 [2] is reported as 2.77 µM. The TGI [2] was 7.26 µM, the GI50 [3] was 1.65 µM and the TGI [3] was 4.14 µM. It also gave a GI50 [4] of 1.98 µM, a TGI [4] of 6.07 µM and a GI50 [5] of 1.56 µM. For the same compound, the TGI [5] was 3.13 µM, the GI50 [6] was 2.04 µM and the TGI [6] was 4.78 µM. It also gave a GI50 [7] of 1.87 µM, a TGI [7] of 4.74 µM and a GI50 [8] of 1.07 µM. The TGI [8] was 3.48 µM, the GI50 [9] was 2.45 µM and the TGI [9] was 7.22 µM. For the same compound, the GI50 [10] was 2.05 µM, the TGI [10] was 4.02 µM and the GI50 [11] was 2.96 µM. It also gave a TGI [11] of 10.6 µM, a GI50 [12] of 1.92 µM and a TGI [12] of 3.91 µM. For the same compound, the GI50 [14] was 2.63 µM, the TGI [14] was 7.11 µM and the GI50 [15] was 2.17 µM. The TGI [15] was 6.24 µM, the GI50 [16] was 1.99 µM and the TGI [16] was 5.41 µM. The GI50 [17] was 2.79 µM, the TGI [17] was 11.2 µM and the GI50 [18] was 2.03 µM. For the same compound, the TGI [18] was 3.71 µM, the GI50 [19] was 1.76 µM and the TGI [19] was 3.51 µM. It also gave a GI50 [20] of 2.46 µM, a TGI [20] of 8.3 µM and a GI50 [21] of 1.99 µM. It also gave a TGI [21] of 3.66 µM, a GI50 [22] of 1.67 µM and a TGI [22] of 3.07 µM. For the same compound, the GI50 [23] was 1.74 µM, the TGI [23] was 3.63 µM and the GI50 [24] was 1.84 µM. For the same compound, the TGI [24] was 4.1 µM, the GI50 [25] was 2.17 µM and the TGI [25] was 5.4 µM. It also gave a GI50 [26] of 1.5 µM, a TGI [26] of 3.19 µM and a GI50 [27] of 1.62 µM. For the same compound, the TGI [27] was 3.78 µM, the GI50 [28] was 2.02 µM and the TGI [28] was 5.84 µM. For the same compound, the GI50 [29] was 2.08 µM, the TGI [29] was 5.99 µM and the GI50 [30] was 1.61 µM. It also gave a TGI [30] of 3.48 µM, a GI50 [31] of 1.71 µM and a TGI [31] of 3.58 µM. The GI50 [32] was 2.14 µM, the TGI [32] was 6.56 µM and the GI50 [33] was 2.34 µM. The TGI [33] was 7.95 µM, the GI50 [34] was 1.83 µM and the TGI [34] was 3.58 µM. The GI50 [35] was 1.65 µM, the TGI [35] was 4 µM and the GI50 [36] was 2.44 µM. It also gave a TGI [36] of 8.88 µM, a GI50 [37] of 1.6 µM and a TGI [37] of 3.1 µM. The GI50 [38] was 1.77 µM, the TGI [38] was 3.39 µM and the GI50 [39] was 1.49 µM. It also gave a TGI [39] of 2.93 µM, a GI50 [40] of 1.72 µM and a TGI [40] of 3.28 µM. The GI50 [57] was 1.12 µM, the TGI [57] was 2.62 µM and the GI50 [42] was 2.65 µM. It also gave a TGI [42] of 7.36 µM, a GI50 [44] of 2.11 µM and a TGI [44] of 4.83 µM. The GI50 [45] was 3.05 µM, the TGI [45] was 9.4 µM and the GI50 [46] was 1.34 µM. The TGI [46] was 2.78 µM, the GI50 [47] was 2.28 µM and the TGI [47] was 7.55 µM. The GI50 [48] was 2.1 µM, the TGI [48] was 4.18 µM and the GI50 [49] was 1.57 µM. For the same compound, the TGI [49] was 3.03 µM, the GI50 [50] was 2.05 µM and the TGI [50] was 4.35 µM. It also gave a GI50 [51] of 2.12 µM, a TGI [51] of 4.68 µM and a GI50 [52] of 2.17 µM. The TGI [52] was 6.78 µM, the GI50 [53] was 1.95 µM and the TGI [53] was 4.7 µM. It also gave a GI50 [54] of 1.6 µM, a TGI [54] of 2.99 µM and a GI50 [55] of 1.81 µM. For the same compound, the TGI [55] was 3.72 µM, the GI50 [56] was 1.91 µM and the TGI [56] was 4.23 µM.

Reference: PubChem BioAssay (NCI)
